The values below come from PMC9822036, “Virtual Screening, Synthesis, and Biological Evaluation of Some Carbohydrazide Derivatives as Potential DPP-IV Inhibitors” (Molecules, 2022).

For series [1], the target named is T1, DPP-IV enzyme (Homo sapiens, UniProt P27487).
T1 construct: purchased Cayman Chemical (only as the URL of the kit insert) 700210
The series is described as follows: In vitro DPP-IV enzymatic assay. As to conditions: means of three independent determinations. It is filed as biochemical. An excerpt:
The prepared compounds were investigated in vitro for their ability to inhibit the DPP-IV enzyme, and the detailed method is already described in our previously published paper.

For series [2], the system named is rats. The series is described as follows: Acute toxicity studies (OECD guideline 423). It is filed as in vivo. The conditions noted are these: oral, 500 mg/kg body weight, monitored for 72 h. As for the experimental part:
Acute toxicity studies were performed as per the OECD guideline 423. For compounds 1b, 4c, and 5b, three groups of six rats weighing 80–120 g were starved overnight and given the test compounds orally at doses of 200, 500, 1000, and 2000 mg/kg body weight. The animals were monitored for 72 h, for symptoms of acute toxicity, such as increased or reduced motor activity, tremors, convulsions, and drowsiness, among others. […] As a result, the OECD-recommended dosage for assessing the antidiabetic action was set at 50 mg/kg (i.e., […]).

Series [3] concerns STZ-induced diabetic rats. The series is described as follows: In vivo antidiabetic activity, STZ-induced T2DM model, fasting blood glucose. Details: species or system Wistar rats. The conditions noted are these: compounds 50 mg/kg, sitagliptin 10 mg/kg, daily for 21 days, six rats. An excerpt:
The antihyperglycemic potential of certain compounds was investigated in Wistar rats. STZ-induced diabetic rats were employed for the antihyperglycemic testing. The animal experiments were approved by the Institutional Animal Ethics Committee (IAEC) in New Delhi, India (Protocol Number: IAEC/MCP/009/2020). During the research period, the Committee for the Purpose of Control and Supervision of Experiments on Animals (CPCSEA) and IAEC criteria for animal care were followed.
Rats were given a high-fat diet after one week of acclimation. Diabetes was induced in the animals as per the method each described in [25]. Rats were then divided into six groups with six animals. Group I served as normal control with normal rats receiving the vehicle only. Group II served as diabetes control in which rats received the vehicle only. […] Groups IV, V, and VI served as test groups and received compounds 1b, 5b, and 4c, respectively, at doses of 50 mg/kg b.w. The diabetic rats were given the tested compound suspended in 0.5% w/v CMC every day for 21 days. On days 1, 7, 14, and 21, blood samples were taken from the tail veins of each animal that had fasted overnight. A glucometer was used to measure blood glucose levels.

In series [4] the test system is ob/ob mice. The conditions noted are these: 10 mg/kg p.o., cited from earlier work.

T1 sequence (P27487 whole entry): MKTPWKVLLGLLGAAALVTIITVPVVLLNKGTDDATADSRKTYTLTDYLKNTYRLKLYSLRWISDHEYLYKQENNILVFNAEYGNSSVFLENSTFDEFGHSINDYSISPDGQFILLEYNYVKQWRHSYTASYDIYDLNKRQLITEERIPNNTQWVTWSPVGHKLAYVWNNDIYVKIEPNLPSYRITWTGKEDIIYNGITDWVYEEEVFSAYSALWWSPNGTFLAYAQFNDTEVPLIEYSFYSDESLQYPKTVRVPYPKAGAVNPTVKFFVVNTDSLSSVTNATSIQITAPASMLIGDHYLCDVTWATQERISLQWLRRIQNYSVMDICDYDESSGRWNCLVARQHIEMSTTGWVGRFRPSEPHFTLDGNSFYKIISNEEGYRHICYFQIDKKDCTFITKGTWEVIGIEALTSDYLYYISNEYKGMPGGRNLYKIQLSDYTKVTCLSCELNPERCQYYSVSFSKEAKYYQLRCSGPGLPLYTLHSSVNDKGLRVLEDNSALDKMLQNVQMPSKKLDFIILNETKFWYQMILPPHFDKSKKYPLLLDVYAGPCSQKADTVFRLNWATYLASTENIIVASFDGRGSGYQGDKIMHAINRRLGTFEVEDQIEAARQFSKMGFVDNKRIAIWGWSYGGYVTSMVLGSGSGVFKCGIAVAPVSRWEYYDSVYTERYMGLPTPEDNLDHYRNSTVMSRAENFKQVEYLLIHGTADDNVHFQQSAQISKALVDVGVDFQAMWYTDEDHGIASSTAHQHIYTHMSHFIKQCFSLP

In series [1], `CC1=C(C(=O)N/N=C/c2ccccc2)C(c2ccccc2)NC(=O)N1` (stereo not shown) [Compound 1a, (E)-N-Benzylidene-6-methyl-2-oxo-4-phenyl-1,2,3,4-tetrahydropyrimidine-5-carbohydrazide] showed an inhibition at 50 µM of 40.74 ± 0.38% and a half-inhibitory concentration (IC50) of 58.95 ± 0.0012 µM.

As for `CC1=C(C(=O)N/N=C/c2ccccc2O)C(c2ccccc2)NC(=O)N1` (stereo not shown) [Compound 1b, (E)-N-(2-Hydroxybenzylidene)-6-methyl-2-oxo-4-phenyl-1,2,3,4-tetrahydropyrimidine-5-carbohydrazide], in series [1], the inhibition at 50 µM was found to be 42.69 ± 0.28% and the IC50 worked out at 54.73 ± 0.0025 µM. Moreover, the “Acute toxicity, mortality” value in series [2] was “more than half of the animals died”. In series [3], the “Fasting Blood Glucose ± SEM, On Day 1” value turned out to be 261.00 ± 8.44 mg/dL; the “Fasting Blood Glucose ± SEM, On Day 7” value is recorded as 215.03 ± 3.29 mg/dL; the “Fasting Blood Glucose ± SEM, On Day 14” value worked out at 187.05 ± 6.48 mg/dL; the “Fasting Blood Glucose ± SEM, On Day 21” value is reported as 160.12 ± 6.18 mg/dL.

In series [1], `COc1ccccc1/C=N/NC(=O)C1=C(C)NC(=O)NC1c1ccccc1` (stereo not shown) [Compound 1c, (E)-N-(2-Methoxybenzylidene)-6-methyl-2-oxo-4-phenyl-1,2,3,4-tetrahydropyrimidine-5-carbohydrazide] gave an inhibition at 50 µM of 56.47 ± 0.37% and an IC50 of 39.72 ± 0.0027 µM.

In series [1], `COc1ccc(/C=N/NC(=O)C2=C(C)NC(=O)NC2c2ccccc2)cc1` (stereo not shown) [Compound 1d, (E)-N-(4-Methoxybenzylidene)-6-methyl-2-oxo-4-phenyl-1,2,3,4-tetrahydropyrimidine-5-carbohydrazide] displayed an inhibition at 50 µM of 57.74 ± 0.38% and an IC50 of 38.26 ± 0.005 µM.

Turning to `CC1=C(C(=O)N/N=C/c2ccccc2)C(c2ccccc2Cl)NC(=O)N1` (stereo not shown) [Compound 2a, (E)-N-Benzylidene-4-(2-chlorophenyl)-6-methyl-2-oxo-1,2,3,4-tetrahydropyrimidin-5-carbohydrazide], in series [1], at 50 µM the inhibition was 61.25 ± 0.16% and 32.41 ± 0.0033 µM corresponded to half-maximal inhibition (IC50).

In series [1], `CC1=C(C(=O)N/N=C/c2ccccc2O)C(c2ccccc2Cl)NC(=O)N1` (stereo not shown) [Compound 2b, (E)-4-(2-Chlorophenyl)-N-(2-hydroxybenzylidene)-6-methyl-2-oxo-1,2,3,4-tetrahydropyrimidine-5-carbohydrazide] gave an inhibition at 50 µM of 65.5 ± 0.08% and an IC50 of 31.93 ± 0.0029 µM.

In series [1], `COc1ccccc1/C=N/NC(=O)C1=C(C)NC(=O)NC1c1ccccc1Cl` (stereo not shown) [Compound 2c, (E)-4-(2-Chlorophenyl)-N-(2-methoxybenzylidene)-6-methyl-2-oxo-1,2,3,4-tetrahydropyrimidine-5-carbohydrazide] showed an inhibition at 50 µM of 63.25 ± 0.05% and an IC50 of 33.97 ± 0.0025 µM.

In series [1], `COc1ccc(/C=N/NC(=O)C2=C(C)NC(=O)NC2c2ccccc2Cl)cc1` (stereo not shown) [Compound 2d, (E)-4-(2-Chlorophenyl)-N-(4-methoxybenzylidene)-6-methyl-2-oxo-1,2,3,4-tetrahydropyrimidine-5-carbohydrazide] returned an inhibition at 50 µM of 64.78 ± 0.33% and an IC50 of 31.72 ± 0.0021 µM.

In series [1], `CC1=C(C(=O)N/N=C/c2ccccc2)C(c2ccc(Cl)cc2Cl)NC(=O)N1` (stereo not shown) [Compound 3a, (E)-N-Benzylidene-4-(2,4-dichlorophenyl)-6-methyl-2-oxo-1,2,3,4-tetrahydropyrimidine-5-carbohydrazide] had an inhibition at 50 µM of 61.25 ± 0.16% and an IC50 of 33.91 ± 0.0029 µM.

In series [1], `CC1=C(C(=O)N/N=C/c2ccccc2O)C(c2ccc(Cl)cc2Cl)NC(=O)N1` (stereo not shown) [Compound 3b, (E)--4-(2,4-Dichlorophenyl)-N-(2-hydroxybenzyldene)-6-methyl-2-oxo-1,2,3,4-tetrahydropyrimidine-5-carbohydrazide] yielded an inhibition at 50 µM of 61 ± 0.08% and an IC50 of 33.79 ± 0.0021 µM.

In series [1], `COc1ccccc1/C=N/NC(=O)C1=C(C)NC(=O)NC1c1ccc(Cl)cc1Cl` (stereo not shown) [Compound 3c] returned an inhibition at 50 µM of 61 ± 0.08% and an IC50 of 33.73 ± 0.0024 µM.

Consider `CC1=C(C(=O)N/N=C/c2ccccc2)C(c2ccccc2F)NC(=O)N1` (stereo not shown) [Compound 4a], for which, in series [1], the inhibition at 50 µM is 64.78 ± 0.33% and 30.47 ± 0.0025 µM corresponded to half-maximal inhibition (IC50).

With `CC1=C(C(=O)N/N=C/c2ccccc2O)C(c2ccccc2F)NC(=O)N1` (stereo not shown) [Compound 4b, (E)--4-(2-Fluorophenyl)-N-(2-hydroxybenzyldene)-6-methyl-2-oxo-1,2,3,4-tetrahydropyrimidine-5-carbohydrazide], in series [1], the inhibition at 50 µM was 63.8 ± 0.16% and the concentration for half-maximal inhibition (IC50) came out at 31.75 ± 0.0027 µM.

In series [1], `COc1ccccc1/C=N/NC(=O)C1=C(C)NC(=O)NC1c1ccccc1F` (stereo not shown) [Compound 4c, (E)--4-(2-Fluorophenyl)-N-(2-methoxybenzyldene)-6-methyl-2-oxo-1,2,3,4-tetrahydropyrimidine-5-carbohydrazide] came in with an inhibition at 50 µM of 60.4 ± 0.08% and an IC50 of 34.94 ± 0.0016 µM. Also, the “Acute toxicity, mortality” value in series [2] is “more than half of the animals died”. In addition, in series [3], the “Fasting Blood Glucose ± SEM, On Day 1” value is recorded as 264.66 ± 5.70 mg/dL; the “Fasting Blood Glucose ± SEM, On Day 7” value is given as 237.16 ± 9.01 mg/dL; the “Fasting Blood Glucose ± SEM, On Day 14” value was 194.83 ± 4.81 mg/dL; the “Fasting Blood Glucose ± SEM, On Day 21” value was 169.66 ± 8.53 mg/dL.

In the case of `COc1ccc(/C=N/NC(=O)C2=C(C)NC(=O)NC2c2ccccc2F)cc1` (stereo not shown) [Compound 4d, (E)--4-(2-Fluorophenyl)-N-(4-methoxybenzyldene)-6-methyl-2-oxo-1,2,3,4-tetrahydropyrimidine-5-carbohydrazide], in series [1], the inhibition at 50 µM amounted to 57.74 ± 0.38% and the IC50 was 38.62 ± 0.0025 µM.

In series [1], `CC1=C(C(=O)N/N=C/c2ccccc2)C(c2ccc(F)cc2F)NC(=O)N1` (stereo not shown) [Compound 5a, (E)-N-Benzylidene-4-(2,4-difluorophenyl)-6-methyl-2-oxo-1,2,3,4-tetrahydropyrimidine-5-carbohydrazide] showed an inhibition at 50 µM of 44.2 ± 0.28% and an IC50 of 65.31 ± 0.0021 µM.

Turning to `CC1=C(C(=O)N/N=C/c2ccccc2O)C(c2ccc(F)cc2F)NC(=O)N1` (stereo not shown) [Compound 5b, (E)--4-(2,4-Difluorophenyl)-N-(2-hydroxybenzyldene)-6-methyl-2-oxo-1,2,3,4-tetrahydropyrimidine-5-carbohydrazide], in series [1], 50 µM produced 70.7 ± 0.37% inhibition and the IC50 came to 28.13 ± 0.0029 µM. Moreover, the “Acute toxicity, mortality” value in series [2] is given as “more than half of the animals died”. Moreover, in series [3], the “Fasting Blood Glucose ± SEM, On Day 1” value is recorded as 253.83 ± 4.49 mg/dL; the “Fasting Blood Glucose ± SEM, On Day 7” value was found to be 182.00 ± 8.11 mg/dL; the “Fasting Blood Glucose ± SEM, On Day 14” value was found to be 167.16 ± 6.23 mg/dL; the “Fasting Blood Glucose ± SEM, On Day 21” value worked out at 157.33 ± 5.75 mg/dL. Besides, in series [3] (listed as Compound 5b), the “Fasting Blood Glucose ± SEM, On Day 21” value is listed as 157.33 ± 5.75 mg/dL.

As for `COc1ccccc1/C=N/NC(=O)C1=C(C)NC(=O)NC1c1ccc(F)cc1F` (stereo not shown) [Compound 5c], in series [1], the inhibition at 50 µM came to 58.54 ± 0.27% and it took 37.63 ± 0.0026 µM to reach half-maximal inhibition (IC50).

Consider `N[C@@H](CC(=O)N1CCn2c(nnc2C(F)(F)F)C1)Cc1cc(F)c(F)cc1F` [Sitagliptin, reference compound], for which, in series [3], the “Fasting Blood Glucose ± SEM, On Day 1” value came to 240.16 ± 9.88 mg/dL; the “Fasting Blood Glucose ± SEM, On Day 7” value came out at 178.66 ± 6.92 mg/dL; the “Fasting Blood Glucose ± SEM, On Day 14” value is on record as 175.16 ± 8.61 mg/dL; the “Fasting Blood Glucose ± SEM, On Day 21” value amounted to 133.50 ± 11.80 mg/dL. The Long-term inhibition in series [4] (after 8 h) is listed as over 70%. In addition, the Glucose excursion in series [4] (at 8 h) was 35%.
